These results are taken from patent US8853238B2, “Fused heterocyclic compound and use thereof for pest control” (Sumitomo Chemical Company, Limited, priority 2010, dated 2014).

What all share (format): in vivo
Test [1] has as its system Nilaparvata lugens. The experiment in a line: Test Example 4: spray on rice seedling, release of Nilaparvata lugens larvae. Particulars: 144 h, read-out: Control value.
The subject of test [2] is Aphis gossypii. As to the kind of experiment: Test Example 2: root immersion of cucumber seedling, then inoculation with Aphis gossypii. The conditions noted are these: 168 h; 500 ppm active ingredient; cucumber root part immersed in 5 ml; 30 Aphis gossypii inoculated one day after treatment; examined after further seven days. How it is done: A root part of a cucumber seedling (the first true leaf stage) from which soil had been washed off was immersed in 5 ml of each of the diluted solutions, and one day after treatment, on the cucumber leaf surface was inoculated with 30 Aphis gossypii (whole stage). After further seven days, the number of insect of living Aphis gossypii parasitized on the leaves of the cucumber was examined, and a control value was calculated according to the following equation: Control value (%)={1−(Cb×Tai)/(Cai×Tb))×100 wherein symbols represent as follows: Cb: the number of insects in a non-treated section before treatment, Cai: the number of insects in a non-treated section in observation, Tb: the number of insects in a treated-section before treatment, Tai: the number of insects in a treated-section in observation; wherein the non-treated section represents a section where the test diluted solution prepared by diluting the formulation without the present compound in Formulation Example 5 with the same amount of water as in the treated-section was used.

Test [3] has as its system Nilaparvata lugens. As to the kind of experiment: Test Example 5: drench at foot of rice seedling, release of Nilaparvata lugens larvae. The conditions noted are these: soil, 144 h; 500 ppm active ingredient; rice seedling drenched at its foot with 5 ml, kept 7 days; twenty third-fourth instar larvae of Nilaparvata lugens; examined after 6 days. The procedure:
On the other hand, a rice seedling (2 weeks after sowing, the second leaf stage) planted in a plastic cup was drenched at its foot with 5 ml of each of the diluted solutions, and kept in a greenhouse of 25° C. for 7 days. Twenty third-fourth instar larvae of Nilaparvata lugens were released, and further kept in the greenhouse for 6 days, then the number of insect of living Nilaparvata lugens parasitized on the rice was examined, and a control value was calculated according to the following equation: Control value (%)={1−(Cb×Tai)/(Cai×Tb))×100 wherein symbols represent as follows: Cb: the number of insects in a non-treated section before treatment, Cai: the number of insects in a non-treated section in observation, Tb: the number of insects in a treated-section before treatment, Tai: the number of insects in a treated-section in observation; wherein the non-treated section represents a section where the test diluted solution prepared by diluting the formulation without the present compound in Formulation Example 5 with the same amount of water as in the treated-section was used.

In test [4] the test system is Aphis gossypii. As to the kind of experiment: Test Example 1: spray on cucumber seedling inoculated with Aphis gossypii. The conditions noted are these: topical, 144 h; 500 ppm active ingredient (Formulation Example 5 diluted with water); 20 ml sprayed on cucumber seedling with about 30 Aphis gossypii; six days after spraying. The procedure: On the other hand, on a cucumber seedling (the first true leaf stage) planted in a plastic cup was inoculated with about 30 Aphis gossypii, and leaving it for a day. Twenty ml of each of the above test spray solutions was sprayed on this seedling. Six days after spraying, the number of the surviving Aphis gossypii parasitized on the leaves of the cucumber was examined, and a control value was calculated according to the following equation: Control value (%)={1−(Cb×Tai)/(Cai×Tb))×100 wherein symbols represent as follows: Cb: the number of insects in a non-treated section before treatment, Cai: the number of insects in a non-treated section in observation, Tb: the number of insects in a treated-section before treatment, Tai: the number of insects in a treated-section in observation; wherein the non-treated section represents a section where the test spray solution prepared by diluting the formulation without the present compound in Formulation Example 5 with the same amount of water as in the treated-section was sprayed.

Where [5] appears, read: 500 ppm active ingredient, rice seedling sprayed with 10 ml, third-fourth instar larvae of Nilaparvata lugens, after 6 days at 25° C.

Take `CSc1ccccc1-c1nc2cc(C(F)(F)F)cnc2n1C` [Present Compound 1, 3-methyl-2-(2-methylsulfanylphenyl)-6-trifluoromethyl-3H-imidazo[4,5-b]pyridine]: the pest or weed control at 500 ppm in test [1] (setting [5]) is no less than 90%.
Still for that read-out and setting: then `CC(C)Sc1ccccc1-c1nc2cc(C(F)(F)F)cnc2n1C` [Present Compound 12, 2-(2-isopropylsulfanylphenyl)-3-methyl-6-trifluoromethyl-3H-imidazo[4,5-b]pyridine], with no less than 90%.
Take `Cn1c(-c2ccccc2[S+]([O-])C(C)(C)C)nc2cc(C(F)(F)F)cnc21` (centres unmarked) [Present Compound 16, 2-(2-tert-butylsulfinylphenyl)-3-methyl-6-trifluoromethyl-3H-imidazo[4,5-b]pyridine]: the pest or weed control at 500 ppm in test [2] is no less than 90%.
Same read-out and setting: then `CCOCn1c(-c2ccccc2SCC)nc2cc(C(F)(F)F)cnc21` [Present Compound 33, 3-ethoxymethyl-2-(2-ethylsulfanylphenyl)-6-trifluoromethyl-3H-imidazo[4,5-b]pyridine], with no less than 90%.
On the same count and under the same terms, for `CCOCn1c(-c2ccccc2SCC)nc2ncc(C(F)(F)F)cc21` [Present Compound 34, 1-ethoxymethyl-2-(2-ethylsulfanylphenyl)-6-trifluoromethyl-1H-imidazo[4,5-b]pyridine] the value was no less than 90%; for `CCOCn1c(-c2ccccc2S(=O)(=O)CC)nc2cc(C(F)(F)F)cnc21` [Present Compound 36, 2-(2-ethylsulfonylphenyl)-3-ethoxymethyl-6-trifluoromethyl-3H-imidazo[4,5-b]pyridine], no less than 90%.
In test [3], `CCS(=O)(=O)c1ccccc1-c1nc2cc(C(F)(F)F)cnc2n1COC` [Present Compound 38, 2-(2-ethylsulfonylphenyl)-3-methoxymethyl-6-trifluoromethyl-3H-imidazo[4,5-b]pyridine] displayed a pest or weed control at 500 ppm of no less than 90%.
For `CC[S+]([O-])c1ccccc1-c1nc2cc(Br)cnc2n1C` (centres unmarked) [Present Compound 43, 6-bromo-2-(2-ethylsulfinylphenyl)-3-methyl-3H-imidazo[4,5-b]pyridine], in test [2], the pest or weed control at 500 ppm was no less than 90%.
Regarding `CC[S+]([O-])c1ccccc1-c1nc2cc(I)cnc2n1C` (centres unmarked) [Present Compound 46, 2-(2-ethylsulfinylphenyl)-6-iodo-3-methyl-3H-imidazo[4,5-b]pyridine], the pest or weed control at 500 ppm in test [2], in test [1] (setting [5]) and in test [4] was no less than 90% in each case.
As for `CC[S+]([O-])c1ccccc1-c1nc2cc(C(F)F)cnc2n1C` (centres unmarked) [Present Compound 53, 6-difluoromethyl-2-(2-ethylsulfinylphenyl)-3-methyl-3H-imidazo[4,5-b]pyridine], the pest or weed control at 500 ppm in test [2] and in test [4] was no less than 90% in each case.
On to `CCSc1ccccc1-c1nc2ncc(C(F)(F)F)cc2n1C` [Present Compound 66, 2-(2-ethylsulfanylphenyl)-1-methyl-6-trifluoromethyl-1H-imidazo[4,5-b]pyridine], for which the pest or weed control at 500 ppm in test [2] and in test [4] was no less than 90% throughout.
As to `CCSc1ccccc1-c1nc2cc(C(F)(F)F)ccc2n1C` [Present Compound 68, 2-(2-ethylsulfanylphenyl)-1-methyl-5-trifluoromethyl-1H-benzimidazole], the pest or weed control at 500 ppm in test [1] (setting [5]) was no less than 90%.
Consider `CC[S+]([O-])c1ccccc1-c1nc2cc(C(F)(F)F)ccc2n1C` (centres unmarked) [Present Compound 69, 2-(2-ethylsulfinylphenyl)-1-methyl-5-trifluoromethyl-1H-benzimidazole], for which the pest or weed control at 500 ppm in test [2] and in test [1] (setting [5]) was no less than 90% each time.
The compound `CCS(=O)(=O)c1ccccc1-c1nc2cc(C(F)(F)F)ccc2n1C` [Present Compound 70, 2-(2-ethylsulfonylphenyl)-1-methyl-5-trifluoromethyl-1H-benzimidazole] returned a pest or weed control at 500 ppm in test [2] of no less than 90%.
`CC[S+]([O-])c1ccccc1-c1nc2cc(C(F)(F)F)cc(Cl)c2n1C` (centres unmarked) [Present Compound 72, 7-chloro-2-(2-ethylsulfinylphenyl)-1-methyl-5-trifluoromethyl-1H-benzimidazole]: the pest or weed control at 500 ppm in test [4] was no less than 90%.
In test [2], `CC[S+]([O-])c1ccccc1-c1nc2cc(C(F)(F)F)cnc2o1` (centres unmarked) [Present Compound 82, 2-(2-ethylsulfinylphenyl)-6-trifluoromethyloxazolo[5,4-b]pyridine] showed a pest or weed control at 500 ppm of no less than 90%.
Consider `CCS(=O)(=O)c1ccccc1-c1nc2cc(C(F)(F)F)cnc2o1` [Present Compound 83, 2-(2-ethylsulfonylphenyl)-6-trifluoromethyloxazolo[5,4-b]pyridine], for which the pest or weed control at 500 ppm in test [2] and in test [1] (setting [5]) was no less than 90% each time.
For `CSc1ccccc1-c1nc2cc(C(F)(F)F)ccc2s1` [Present Compound 84, 2-(2-methylsulfanylphenyl)-5-trifluoromethylbenzothiazole], in test [1] (setting [5]), the pest or weed control at 500 ppm is no less than 90%.
Take `CCSc1ccccc1-c1nc2cc(C(F)(F)C(F)(F)C(F)(F)F)cnc2n1C` [Present Compound 128, 2-(2-ethylsulfanyl-phenyl)-6-heptafluoropropyl-3-methyl-3H-imidazo[4,5-b]pyridine]: the pest or weed control at 500 ppm in test [1] (Nilaparvata lugens) is no less than 90%.
Compound `CCSc1ccccc1-c1nc2ccc(C(F)(F)F)nc2n1C` [Present Compound 151, 2-(2-ethylsulfanylphenyl)-3-methyl-5-trifluoromethyl-3H-imidazo[4,5-b]pyridine] gave a pest or weed control at 500 ppm in test [4] of no less than 90%.
Consider `CC[S+]([O-])c1ccccc1-c1nc2nc(C(F)(F)F)ccc2n1C` (centres unmarked) [compound 167, 2-(2-ethylsulfinylphenyl)-1-methyl-5-trifluoromethyl-1H-imidazo[4,5-b]pyridine], for which the pest or weed control at 500 ppm in test [2] was no less than 90%.
For `CCSc1ccccc1-c1nc2cc(C(F)(F)F)cnc2s1` [compound 183, 2-(2-ethylsulfanylphenyl)-6-(trifluoromethyl)thiazolo[5,4-b]pyridine], in test [4], the pest or weed control at 500 ppm was no less than 90%.
On to `CCS(=O)(=O)c1ccccc1-c1nc2cc(C(F)(F)F)cnc2s1` [compound 185, 2-(2-ethylsulfonylphenyl)-6-(trifluoromethyl)thiazolo[5,4-b]pyridine], for which, in test [3], the pest or weed control at 500 ppm was no less than 90%.
The same measure, in the same setting: for `CCS(=O)(=O)c1ccccc1-c1nc2cc([S+]([O-])C(F)(F)F)cnc2n1C` (centres unmarked) [compound 214, 2-(2-ethylsulfonylphenyl)-6-trifluoromethylsulfinyl-3-methyl-3H-imidazo[4,5-b]pyridine] the value was no less than 90%.
Regarding `CCSc1cc(Br)ccc1-c1nc2cc(C(F)(F)F)cnc2n1C` [compound 238, 2-(4-bromo-2-ethylsulfanylphenyl)-3-methyl-6-trifluoromethyl-3H-imidazo[4,5-b]pyridine], the pest or weed control at 500 ppm in test [1] (setting [5]) was no less than 90%.
Same read-out and setting: for `CCSc1cc(C(F)(F)F)ccc1-c1nc2cc(S(F)(F)(F)(F)F)ccc2n1C` [compound 314, 2-(2-ethylsulfanyl-4-trifluoromethyl-phenyl)-1-methyl-5-(pentafluorosulphur)-1H-benzimidazole] the value was no less than 90%.
